US11833149B2, “Pulse dosing regimen and methods of treatment” (OSI Pharmaceuticals, LLC, priority 2016, dated 2023)

Assay: Phase 1 study: pharmacokinetic analysis of plasma (LC-MS/MS)
Assay type: in vivo, patients
Details: in vivo
Method: Pharmacokinetic analysis: Whole-blood samples for plasma were collected at prescheduled time points for pharmacokinetic (PK) analysis. Plasma levels of erlotinib were determined using a validated liquid chromatography-tandem mass spectrometry assay. […] MS detection was using an AB SCIEX API 4000 triple quadrupole mass spectrometer operating in positive ion electrospray ionization (ESI) mode. Standard PK parameters were calculated using a noncompartmental method (WiNNonlin, Pharsight).

With `C#Cc1cccc(Nc2ncnc3cc(OCCOC)c(OCCO)cc23)c1` [OSI-420] the “dose-dependence of metabolite with increasing pulse doses of erlotinib” value was “no significant dose-dependence”.
